Assay results: article PMC9245008 (ACS chemical biology, 2022)

What was measured:
TAK1 [1] = molecular target: T1, TAK1 (Homo sapiens, UniProt O43318); assay: Potency of takinib analogues against TAK1; type: biochemical
T1 sequence (O43318 1-303 limits assumed): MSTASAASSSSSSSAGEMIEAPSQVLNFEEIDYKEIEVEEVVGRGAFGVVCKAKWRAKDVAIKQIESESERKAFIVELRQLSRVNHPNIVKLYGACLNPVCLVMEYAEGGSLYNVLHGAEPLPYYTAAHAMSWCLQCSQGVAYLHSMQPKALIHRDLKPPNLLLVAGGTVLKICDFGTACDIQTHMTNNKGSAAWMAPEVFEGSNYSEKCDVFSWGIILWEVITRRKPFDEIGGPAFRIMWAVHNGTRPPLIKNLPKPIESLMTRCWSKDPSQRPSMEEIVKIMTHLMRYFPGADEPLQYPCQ

[2] = tested on: TNF expression in THP-1 human macrophages; assay: Cytokine profile in stimulated THP-1 human macrophages; type: cell-based; settings: 10 μM; THP-1 macrophages stimulated with LPS and IFNγ; vs vehicle
TAK1 [3] = molecular target: T2, TAK1 (Homo sapiens, UniProt O43318); assay: MRC Dundee kinase panel screen at 10 μM; type: biochemical
T2 sequence (O43318 with tags, fused parts or gaps limits assumed): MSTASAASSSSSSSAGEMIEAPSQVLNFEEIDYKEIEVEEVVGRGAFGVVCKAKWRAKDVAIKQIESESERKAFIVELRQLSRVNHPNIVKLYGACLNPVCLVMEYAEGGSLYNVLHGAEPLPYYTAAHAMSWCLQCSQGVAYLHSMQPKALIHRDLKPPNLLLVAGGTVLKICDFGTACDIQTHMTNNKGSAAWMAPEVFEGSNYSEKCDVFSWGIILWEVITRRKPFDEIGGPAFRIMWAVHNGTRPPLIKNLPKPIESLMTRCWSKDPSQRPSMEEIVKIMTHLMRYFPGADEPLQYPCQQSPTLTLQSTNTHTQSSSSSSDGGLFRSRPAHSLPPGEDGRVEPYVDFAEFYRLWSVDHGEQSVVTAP

TAK1 [4] = molecular target: T2, TAK1; assay: Dose–response of top 10 kinase hits; type: biochemical; settings: read-out: IC50 TAK1, n = 2
CLK2 = CLK2 (Homo sapiens, UniProt P49760); assay: Dose–response of top 10 kinase hits; type: biochemical
CLK2, sequence (P49760 whole entry): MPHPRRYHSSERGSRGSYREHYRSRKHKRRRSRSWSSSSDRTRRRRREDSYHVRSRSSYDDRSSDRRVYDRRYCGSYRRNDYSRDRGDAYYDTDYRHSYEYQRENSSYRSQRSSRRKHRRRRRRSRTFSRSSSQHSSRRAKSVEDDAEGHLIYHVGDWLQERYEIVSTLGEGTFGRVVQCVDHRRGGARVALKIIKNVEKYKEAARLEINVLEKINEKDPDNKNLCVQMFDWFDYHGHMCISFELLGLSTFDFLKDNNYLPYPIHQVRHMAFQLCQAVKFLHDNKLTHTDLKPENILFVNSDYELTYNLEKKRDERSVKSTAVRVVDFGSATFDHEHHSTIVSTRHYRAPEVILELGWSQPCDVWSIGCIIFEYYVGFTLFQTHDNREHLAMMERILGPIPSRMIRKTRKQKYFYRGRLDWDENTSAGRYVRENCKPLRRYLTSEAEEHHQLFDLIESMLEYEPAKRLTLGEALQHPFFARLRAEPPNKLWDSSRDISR

[5] = Oral pharmacokinetics in Sprague-Dawley rats; type: in vivo
CSNK1G2 = CSNK1G2 (Homo sapiens, UniProt P78368); assay: Dose–response of top 10 kinase hits; type: biochemical; settings: read-out: IC50 CSNK1G2, n = 2
CSNK1G2, sequence (P78368 whole entry): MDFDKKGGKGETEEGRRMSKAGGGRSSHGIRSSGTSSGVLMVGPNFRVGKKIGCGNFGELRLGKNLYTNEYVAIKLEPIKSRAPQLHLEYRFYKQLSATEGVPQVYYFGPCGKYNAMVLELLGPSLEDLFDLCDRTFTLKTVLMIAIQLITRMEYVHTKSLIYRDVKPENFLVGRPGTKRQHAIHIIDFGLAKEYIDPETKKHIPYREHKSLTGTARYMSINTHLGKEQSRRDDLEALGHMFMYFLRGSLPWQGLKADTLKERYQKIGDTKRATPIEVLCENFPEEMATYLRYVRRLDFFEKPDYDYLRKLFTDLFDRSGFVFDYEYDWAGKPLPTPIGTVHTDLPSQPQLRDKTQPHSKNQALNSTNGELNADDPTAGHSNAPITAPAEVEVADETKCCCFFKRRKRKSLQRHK

IRAK1 = IRAK1 (Homo sapiens, UniProt P51617); assay: Dose–response of top 10 kinase hits; type: biochemical; settings: read-out: IC50 IRAK1, n = 2
IRAK1, sequence (P51617 whole entry): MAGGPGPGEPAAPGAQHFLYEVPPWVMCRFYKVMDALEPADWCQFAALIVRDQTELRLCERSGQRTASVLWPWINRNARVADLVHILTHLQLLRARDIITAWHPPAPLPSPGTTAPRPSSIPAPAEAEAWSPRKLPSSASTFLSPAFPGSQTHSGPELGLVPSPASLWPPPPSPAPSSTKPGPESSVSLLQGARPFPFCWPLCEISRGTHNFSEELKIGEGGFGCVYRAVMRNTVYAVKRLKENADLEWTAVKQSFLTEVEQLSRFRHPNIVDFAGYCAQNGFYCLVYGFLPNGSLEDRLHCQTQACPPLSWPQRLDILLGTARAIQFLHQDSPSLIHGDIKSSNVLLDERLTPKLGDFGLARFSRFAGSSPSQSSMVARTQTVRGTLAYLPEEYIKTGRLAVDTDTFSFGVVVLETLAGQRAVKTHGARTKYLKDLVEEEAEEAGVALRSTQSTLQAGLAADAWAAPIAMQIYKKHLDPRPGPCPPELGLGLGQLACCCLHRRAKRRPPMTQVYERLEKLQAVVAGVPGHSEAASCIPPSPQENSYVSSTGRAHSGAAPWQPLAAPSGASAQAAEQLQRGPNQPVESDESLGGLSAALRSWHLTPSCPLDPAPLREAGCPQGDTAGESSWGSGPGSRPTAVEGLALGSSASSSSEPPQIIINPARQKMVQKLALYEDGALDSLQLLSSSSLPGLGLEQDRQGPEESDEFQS

CK1γ2 = CK1γ2 (Homo sapiens, UniProt P78368); assay: MRC Dundee kinase panel screen at 10 μM; type: biochemical
CK1γ2, sequence (P78368 whole entry): as the sequence (P78368 whole entry) above

ULK2 = molecular target: T3, ULK2 (Homo sapiens, UniProt Q8IYT8); assay: Dose–response of top 10 kinase hits; type: biochemical; settings: read-out: IC50 ULK2, n = 2
T3 sequence (Q8IYT8 1-1036): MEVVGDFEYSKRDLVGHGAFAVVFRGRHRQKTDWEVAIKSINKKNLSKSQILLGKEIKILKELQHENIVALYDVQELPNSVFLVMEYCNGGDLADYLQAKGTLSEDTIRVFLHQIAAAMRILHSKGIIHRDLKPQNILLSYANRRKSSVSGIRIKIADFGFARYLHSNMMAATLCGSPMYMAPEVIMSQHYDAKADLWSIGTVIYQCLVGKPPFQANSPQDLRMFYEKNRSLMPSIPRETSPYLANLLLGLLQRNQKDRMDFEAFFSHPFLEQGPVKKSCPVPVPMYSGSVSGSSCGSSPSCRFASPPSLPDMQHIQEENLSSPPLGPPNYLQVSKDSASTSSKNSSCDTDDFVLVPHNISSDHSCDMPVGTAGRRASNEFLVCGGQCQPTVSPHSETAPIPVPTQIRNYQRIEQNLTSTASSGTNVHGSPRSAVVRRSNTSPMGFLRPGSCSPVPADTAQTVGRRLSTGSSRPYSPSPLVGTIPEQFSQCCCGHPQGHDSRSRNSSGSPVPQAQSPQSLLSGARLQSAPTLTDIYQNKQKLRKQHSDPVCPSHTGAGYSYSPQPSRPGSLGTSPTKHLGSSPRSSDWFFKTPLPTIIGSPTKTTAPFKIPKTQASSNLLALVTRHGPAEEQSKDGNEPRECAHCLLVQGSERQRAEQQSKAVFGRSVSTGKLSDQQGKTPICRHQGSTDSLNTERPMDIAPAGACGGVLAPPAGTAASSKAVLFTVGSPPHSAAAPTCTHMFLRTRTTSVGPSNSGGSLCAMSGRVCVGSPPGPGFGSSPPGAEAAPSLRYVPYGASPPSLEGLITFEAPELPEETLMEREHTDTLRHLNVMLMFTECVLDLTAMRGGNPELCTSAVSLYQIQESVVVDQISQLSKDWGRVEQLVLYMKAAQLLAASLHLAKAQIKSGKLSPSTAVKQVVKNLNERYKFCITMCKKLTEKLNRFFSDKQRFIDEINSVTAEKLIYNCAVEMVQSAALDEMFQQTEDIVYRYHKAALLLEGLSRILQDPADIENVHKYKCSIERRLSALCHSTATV

CCCn1c(NC(=O)c2cccc(C(N)=O)c2)nc2ccc(CN3CCCCC3)cc21 [HS-276]
Ki (TAK1 [1]; TAK1): 2.5 nM | IC50 (TAK1 [1]; read-out: TAK1 IC50): 2.5 nM | reduction of TNF expression [2]: 11 fold | enzymatic activity (TAK1 [3]): < 15% | IC50 (TAK1 [4]): 8 nM | TAK1 more potently inhibited than CLK2 (CLK2; from dose–response IC50 values): 3.6 fold | IC50 (CLK2; read-out: IC50 CLK2, dose–response, n = 2): 29 nM | time up to which μM serum levels are shown ([5]; post oral gavage, species not stated): up to 8 h | time up to which μM plasma concentration is shown ([5]; rat, 50 mg/kg oral gavage): 8 to 12 h | peak urine concentration ([5]; rat, 50 mg/kg oral gavage, at 12 h): 100 µM | AUC0-last ([5]; rat, PO, 50 mg/kg): 6462 ng·h/mL | Cmax ([5]; rat, PO, 50 mg/kg): 1890 ng/mL | Tmax ([5]; rat, PO, 50 mg/kg): 2 h | half-life ([5]; rat, PO, 50 mg/kg): 5.46 h | IC50 (CSNK1G2): 809 nM | IC50 (IRAK1): 264 nM | enzymatic activity (CK1γ2): < 15% | IC50 (ULK2): 63 nM
